# Reference: patent US20230233569A1 (Revolution Medicines, Inc., priority 2020, published 2023)
# Read-outs that look alike come from different tables or passages of the source.
# Assays:
# KRAS G12C = KRAS G12C (Homo sapiens, UniProt P01116+P62937, G12C); test: Disruption of BRAF RBD interaction with Ras (FRET / MOA assay, with Cyclophilin A); type: biochemical
# Outline: (§1)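 Compound-driven ternary complex formation between nucleotide-loaded K-Ras and Cyclophilin A was measured as loss of BRAF RBD binding. Compounds (10-point 3-fold series, top 30 μM final) were incubated 3 h at 25 °C, then anti-His Eu-W1024 (10 nM) and anti-GST allophycocyanin (50 nM) added for 1.5 h. IC50 was taken from the TR-FRET ratio decrease versus DMSO.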
# KRAS G13C = KRAS G13C (Homo sapiens, UniProt P01116+P62937, G13C); test: as above; type: biochemical
# Outline: as §1
# KRAS G12S = KRAS G12S (Homo sapiens, UniProt P01116+P62937, G12S); test: as above; type: biochemical
# Outline: as §1
# KRAS WT = KRAS WT (Homo sapiens, UniProt P01116+P62937); test: as above; type: biochemical
# Outline: as §1
# KRAS G12D = KRAS G12D (Homo sapiens, UniProt P01116+P62937, G12D); test: as above; type: biochemical
# Outline: as §1
# KRAS G12V = KRAS G12V (Homo sapiens, UniProt P01116+P62937, G12V); test: as above; type: biochemical
# Outline: as §1
# NRAS G12C = NRAS G12C (Homo sapiens, UniProt P01111+P62937, G12C); test: as above; type: biochemical
# KRAS G13D = KRAS G13D (Homo sapiens, UniProt P01116+P62937, G13D); test: as above; type: biochemical
# Outline: as §1
# NCI-H358 (K-Ras G12C) = test: CellTiter-Glo cell viability assay, 5-day treatment; type: cell-based; conditions: Homo sapiens, NCI-H358, 120 h, 5-day treatment; read-out: H358 Cell Viability assay data (K-Ras G12C, IC50)
# Outline: (§2)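 Viability is read as luminescence on day 5 after direct compound addition to plated cells, following about 30 minutes' room-temperature equilibration. Each signal is scaled to mean DMSO as 100%.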
# Capan-1 (K-Ras G12V) = test: as above; type: cell-based; conditions: Homo sapiens, CAPAN-1, 120 h, 5-day treatment; read-out: Capan-1 Cell Viability assay data (K-Ras G12V, IC50)
# Outline: as §2
# [1] = read-out: KRAS G12C FRET data, IC50
# [2] = read-out: KRAS G13C FRET data, IC50
# [3] = read-out: KRAS G12S FRET data, IC50
# [4] = KRAS WT, read-out: KRAS WT FRET data IC50
# [5] = read-out: KRAS G12D FRET data, IC50
# [6] = KRAS G12V, read-out: KRAS G12V FRET data IC50
# [7] = NRAS G12C, read-out: NRAS G12C FRET data IC50
# [8] = KRAS G13D, read-out: KRAS G13D FRET data IC50
# [9] = KRAS WT FRET data IC50, KRAS WT
# [10] = KRAS G12V FRET data IC50, KRAS G12V
# [11] = NRAS G12C FRET data IC50, NRAS G12C
# [12] = KRAS G13D FRET data IC50, KRAS G13D
# Chain of KRAS G12S (P01116 1-169 isoform P01116-2 G12S limits assumed): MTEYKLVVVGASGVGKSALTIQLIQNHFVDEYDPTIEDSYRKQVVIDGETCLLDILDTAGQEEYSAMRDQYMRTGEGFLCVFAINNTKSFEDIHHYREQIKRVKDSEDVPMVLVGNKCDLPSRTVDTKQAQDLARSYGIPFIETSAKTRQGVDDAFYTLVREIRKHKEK
# Chain of KRAS G12S (P62937 whole entry): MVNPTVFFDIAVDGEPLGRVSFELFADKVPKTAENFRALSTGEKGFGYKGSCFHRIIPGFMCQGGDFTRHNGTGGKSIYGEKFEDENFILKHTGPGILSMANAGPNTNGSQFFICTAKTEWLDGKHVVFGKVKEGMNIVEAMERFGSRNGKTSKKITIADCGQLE
# Chain of NRAS G12C (P01111 whole entry G12C): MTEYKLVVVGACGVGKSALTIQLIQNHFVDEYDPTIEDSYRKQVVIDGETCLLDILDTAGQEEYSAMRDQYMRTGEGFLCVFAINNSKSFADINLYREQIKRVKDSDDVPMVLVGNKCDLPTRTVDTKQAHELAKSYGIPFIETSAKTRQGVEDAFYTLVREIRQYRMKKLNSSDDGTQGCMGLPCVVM
# Chain of NRAS G12C (P62937 whole entry): as the sequence (P62937 whole entry) above
# Chain of KRAS WT (P01116 1-169 isoform P01116-2 limits assumed): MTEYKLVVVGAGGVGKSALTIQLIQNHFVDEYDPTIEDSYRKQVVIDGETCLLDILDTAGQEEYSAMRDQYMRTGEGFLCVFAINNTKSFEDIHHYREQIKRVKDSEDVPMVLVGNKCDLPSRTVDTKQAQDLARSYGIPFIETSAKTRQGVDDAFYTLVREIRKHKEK
# Chain of KRAS WT (P62937 whole entry): as the sequence (P62937 whole entry) above
# Chain of KRAS G12C (P01116 1-169 isoform P01116-2 G12C): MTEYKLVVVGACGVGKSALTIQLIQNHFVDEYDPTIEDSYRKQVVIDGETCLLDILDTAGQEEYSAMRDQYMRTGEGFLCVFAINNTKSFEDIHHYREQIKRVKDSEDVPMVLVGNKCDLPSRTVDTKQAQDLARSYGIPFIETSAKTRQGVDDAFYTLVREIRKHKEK
# Chain of KRAS G12C (P62937 whole entry): as the sequence (P62937 whole entry) above
# Chain of KRAS G12D (P01116 1-169 isoform P01116-2 G12D limits assumed): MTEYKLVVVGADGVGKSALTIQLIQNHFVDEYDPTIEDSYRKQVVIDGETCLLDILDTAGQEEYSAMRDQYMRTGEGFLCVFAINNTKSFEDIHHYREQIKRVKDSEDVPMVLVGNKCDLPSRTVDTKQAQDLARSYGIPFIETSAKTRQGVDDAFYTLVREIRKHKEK
# Chain of KRAS G12D (P62937 whole entry): as the sequence (P62937 whole entry) above
# Chain of KRAS G13C (P01116 1-169 isoform P01116-2 G13C): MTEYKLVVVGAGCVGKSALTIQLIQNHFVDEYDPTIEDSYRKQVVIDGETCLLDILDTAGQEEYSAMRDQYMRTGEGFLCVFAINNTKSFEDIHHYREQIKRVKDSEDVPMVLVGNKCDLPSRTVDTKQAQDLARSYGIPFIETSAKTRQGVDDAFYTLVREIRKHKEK
# Chain of KRAS G13C (P62937 whole entry): as the sequence (P62937 whole entry) above
# Chain of KRAS G13D (P01116 1-169 isoform P01116-2 G13D limits assumed): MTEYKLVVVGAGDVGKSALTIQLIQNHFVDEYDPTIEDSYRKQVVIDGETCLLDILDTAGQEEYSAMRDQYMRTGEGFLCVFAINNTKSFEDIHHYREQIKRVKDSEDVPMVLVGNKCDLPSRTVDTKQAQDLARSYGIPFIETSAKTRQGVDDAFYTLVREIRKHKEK
# Chain of KRAS G13D (P62937 whole entry): as the sequence (P62937 whole entry) above
# Chain of KRAS G12V (P01116 1-169 isoform P01116-2 G12V limits assumed): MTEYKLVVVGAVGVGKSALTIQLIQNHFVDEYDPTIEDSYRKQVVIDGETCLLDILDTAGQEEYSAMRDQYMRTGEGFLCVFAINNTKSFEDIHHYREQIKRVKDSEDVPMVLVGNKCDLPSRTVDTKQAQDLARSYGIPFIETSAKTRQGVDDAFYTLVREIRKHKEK
# Chain of KRAS G12V (P62937 whole entry): as the sequence (P62937 whole entry) above
Compound,IC50 (KRAS G12C; [1]),IC50 (KRAS G13C; [2]),IC50 (KRAS G12S; [3]),IC50 (KRAS WT; [4]),IC50 (KRAS G12D; [5]),IC50 (KRAS G12V; [6]),IC50 (NRAS G12C; [7]),IC50 (KRAS G13D; [8]),IC50 (NCI-H358 (K-Ras G12C)),IC50 (Capan-1 (K-Ras G12V)),"IC50 (KRAS G12C; KRAS G12C FRET data, IC50)","IC50 (KRAS G13C; KRAS G13C FRET data, IC50)","IC50 (KRAS G12S; KRAS G12S FRET data, IC50)",IC50 (KRAS WT; [9]),"IC50 (KRAS G12D; KRAS G12D FRET data, IC50)",IC50 (KRAS G12V; [10]),IC50 (NRAS G12C; [11]),IC50 (KRAS G13D; [12])
"CCn1c(-c2cccnc2[C@H](C)OC)c2c3cc(ccc31)-c1cc(O)cc(c1)C[C@H](NC(=O)[C@H](C(C)C)N(C)C(=O)[C@H]1CCN(C(=O)C(C)(C)N(C)C)C1)C(=O)N1CCC[C@H](N1)C(=O)OCC(C)(C)C2 (atropisomer, axis not shown) [Example A114]",10 to 100 nM,10 to 100 nM,10 to 100 nM,10 to 100 nM,100 to 1000 nM,10 to 100 nM,10 to 100 nM,10 to 100 nM,10 to 100 nM,10 to 100 nM,–,–,–,–,–,–,–,–
"CCn1c(-c2cccnc2[C@H](C)OC)c2c3cc(ccc31)-c1cc(O)cc(c1)C[C@H](NC(=O)[C@H](C(C)C)N(C)C(=O)[C@H]1CCN(C(=O)CNC)C1)C(=O)N1CCC[C@H](N1)C(=O)OCC(C)(C)C2 (atropisomer, axis not shown) [Example A120]",10 to 100 nM,100 to 1000 nM,10 to 100 nM,100 to 1000 nM,10 to 100 nM,100 to 1000 nM,10 to 100 nM,100 to 1000 nM,1000 to 10000 nM,> 10000 nM,–,–,–,–,–,–,–,–
"CCn1c(-c2cccnc2[C@H](C)OC)c2c3cc(ccc31)-c1cc(O)cc(c1)C[C@H](NC(=O)[C@H](C(C)C)N(C)C(=O)[C@H]1C[C@@H](O)C1)C(=O)N1CCC[C@H](N1)C(=O)OCC(C)(C)C2 (atropisomer, axis not shown) [Example A121]",–,–,–,–,–,–,–,–,100 to 1000 nM,100 to 1000 nM,10 to 100 nM,10 to 100 nM,10 to 100 nM,10 to 100 nM,100 to 1000 nM,10 to 100 nM,10 to 100 nM,10 to 100 nM
"CCn1c(-c2cccnc2[C@H](C)OC)c2c3cc(ccc31)-c1cc(O)cc(c1)C[C@H](NC(=O)[C@H](C(C)C)N(C)C(=O)[C@H]1CCC[C@H]1N)C(=O)N1CCC[C@H](N1)C(=O)OCC(C)(C)C2 (atropisomer, axis not shown) [Example A131]",10 to 100 nM,10 to 100 nM,10 to 100 nM,10 to 100 nM,10 to 100 nM,100 to 1000 nM,10 to 100 nM,10 to 100 nM,10 to 100 nM,100 to 1000 nM,–,–,–,–,–,–,–,–
"CCn1c(-c2cccnc2[C@H](C)OC)c2c3cc(ccc31)-c1cc(O)cc(c1)C[C@H](NC(=O)[C@H](C(C)C)N(C)C(=O)C1(O)CC1)C(=O)N1CCC[C@H](N1)C(=O)OCC(C)(C)C2 (atropisomer, axis not shown) [Example A132]",10 to 100 nM,10 to 100 nM,100 to 1000 nM,100 to 1000 nM,100 to 1000 nM,100 to 1000 nM,100 to 1000 nM,100 to 1000 nM,100 to 1000 nM,10 to 100 nM,–,–,–,–,–,–,–,–
CCn1c(-c2cccnc2[C@H](C)OC)c2c3cc(ccc31)-c1cc(O)cc(c1)C[C@H](NC(=O)[C@H](C(C)C)N(C)C(=O)[C@H]1CCN(C(=O)CN)C1)C(=O)N1CCC[C@H](N1)C(=O)OCC(C)(C)C2 [Example A1],10 to 100 nM,10 to 100 nM,10 to 100 nM,10 to 100 nM,10 to 100 nM,10 to 100 nM,10 to 100 nM,10 to 100 nM,1000 to 10000 nM,1000 to 10000 nM,–,–,–,–,–,–,–,–
"CCn1c(-c2cnccc2COC)c2c3cc(ccc31)-c1cc(O)cc(c1)C[C@H](NC(=O)[C@H](C(C)C)N(C)C(=O)[C@H]1CCN(C(=O)OC)C1)C(=O)N1CCC[C@H](N1)C(=O)OCC(C)(C)C2 [Example A11, methyl (3S)-3-{[(1S)-1-{[(8S,14S)-22-ethyl-4-hydroxy-21-[4-(methoxymethyl)pyridin-3-yl]-18,18-dimethyl-9,15-dioxo-16-oxa-10,22,28-triazapentacyclo[18.5.2.1^2,6.1^10,14.0^23,27]nonacosa-1(26),2,4,6(29),20,23(27),24-heptaen-8-yl]carbamoyl}-2-methylpropyl](methyl)carbamoyl}pyrrolidine-1-carboxylate]",–,–,–,–,–,–,–,–,100 to 1000 nM,100 to 1000 nM,10 to 100 nM,100 to 1000 nM,100 to 1000 nM,100 to 1000 nM,1000 to 10000 nM,10 to 100 nM,10 to 100 nM,100 to 1000 nM
